Source: patent US11485742B2, “2-azaspiro[3.4]octane derivatives as M4 agonists” (NOVARTIS AG, priority 2019, dated 2022)

Molecular target: T1, human cloned CHRM4 receptor (Homo sapiens, UniProt P08173)
T1 construct: expressed in transfected cells; host or cells: CHO-K1 (M4_CHO)
T1 sequence (P08173 1-479): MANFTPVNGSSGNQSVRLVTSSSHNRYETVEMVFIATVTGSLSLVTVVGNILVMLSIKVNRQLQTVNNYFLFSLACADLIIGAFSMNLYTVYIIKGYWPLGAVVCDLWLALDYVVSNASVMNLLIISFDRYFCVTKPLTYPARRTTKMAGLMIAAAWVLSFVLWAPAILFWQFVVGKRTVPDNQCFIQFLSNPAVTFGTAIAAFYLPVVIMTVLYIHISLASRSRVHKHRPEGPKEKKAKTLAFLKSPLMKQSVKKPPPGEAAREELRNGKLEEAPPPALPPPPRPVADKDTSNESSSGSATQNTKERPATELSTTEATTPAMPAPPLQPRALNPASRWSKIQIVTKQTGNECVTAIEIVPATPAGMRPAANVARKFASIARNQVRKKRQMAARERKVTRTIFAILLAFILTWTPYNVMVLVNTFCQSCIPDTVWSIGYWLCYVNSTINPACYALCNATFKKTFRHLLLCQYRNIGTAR
Experiment: CHRM4 Ca++ Flux Assay (M4_CHO cells, agonist mode)
Assay type: cell-based
Details: for Emax: Percent Activity (PA), read-out: M4 FDSS PA %; for EC50: geometric mean if tested more than once, read-out: M4 FDSS EC50
How it was run: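 CHO-K1 cells stably expressing human M4 were dye-loaded, then held 60 min at RT in Ca/Mg-free HBSS buffer with 20 μM ATP. Ca++ traces were recorded over 3 min after an 11-point compound series in triplicate, agonist mode, with a four-parameter fit. Percent activity is relative to the carbachol EC100; repeat tests are geometric means.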

Fc1ccc(OC2COC2)c(C2CCN([C@@H]3COC4(C3)CN(c3nnco3)C4)CC2)c1 [Example 1A, (S)-7-(4-(5-fluoro-2-(oxetan-3-yloxy)phenyl)piperidin-1-yl)-2-(1,3,4-oxadiazol-2-yl)-5-oxa-2-azaspiro[3.4]octane]
Emax: 82% | EC50: 8 nM

Fc1ccc(OC[C@H]2CCOC2)c(C2CCN([C@@H]3COC4(C3)CN(c3nnco3)C4)CC2)c1 [Example 1I, (S)-7-(4-(5-fluoro-2-(((S)-tetrahydrofuran-3-yl)methoxy)phenyl)piperidin-1-yl)-2-(1,3,4-oxadiazol-2-yl)-5-oxa-2-azaspiro[3.4]octane]
Emax: 69% | EC50: 35 nM

Fc1ccc(OCC2CCOCC2)c(C2CCN([C@@H]3COC4(C3)CN(c3nnco3)C4)CC2)c1 [Example 1J, (S)-7-(4-(5-fluoro-2-((tetrahydro-2H-pyran-4-yl)methoxy)phenyl)piperidin-1-yl)-2-(1,3,4-oxadiazol-2-yl)-5-oxa-2-azaspiro[3.4]octane]
Emax: 79% | EC50: 86 nM

COC(C)(C)CCOc1ccc(F)cc1C1CCN([C@@H]2COC3(C2)CN(c2nnco2)C3)CC1 [Example 1K, (S)-7-(4-(5-fluoro-2-(3-methoxy-3-methylbutoxy)phenyl)piperidin-1-yl)-2-(1,3,4-oxadiazol-2-yl)-5-oxa-2-azaspiro[3.4]octane]
Emax: 58% | EC50: 97 nM

COCCOc1ccc(F)cc1C1CCN([C@@H]2COC3(C2)CN(c2nnco2)C3)CC1 [Example 1L, (S)-7-(4-(5-fluoro-2-(2-methoxyethoxy)phenyl)piperidin-1-yl)-2-(1,3,4-oxadiazol-2-yl)-5-oxa-2-azaspiro[3.4]octane]
Emax: 74% | EC50: 99 nM

Fc1ccc(OC2COCOC2)c(C2CCN([C@@H]3COC4(C3)CN(c3nnco3)C4)CC2)c1 [Example 1M, (S)-7-(4-(2-((1,3-dioxan-5-yl)oxy)-5-fluorophenyl)piperidin-1-yl)-2-(1,3,4-oxadiazol-2-yl)-5-oxa-2-azaspiro[3.4]octane]
Emax: 79% | EC50: 94 nM

CC(C)(O)CCOc1ccc(F)cc1C1CCN([C@@H]2COC3(C2)CN(c2nnco2)C3)CC1 [Example 1N, (S)-4-(2-(1-(2-(1,3,4-oxadiazol-2-yl)-5-oxa-2-azaspiro[3.4]octan-7-yl)piperidin-4-yl)-4-fluorophenoxy)-2-methylbutan-2-ol]
Emax: 63% | EC50: 133 nM

c1ccc(C2CCN([C@@H]3COC4(C3)CN(c3nnco3)C4)CC2)c(O[C@@H]2CCOC2)c1 [Example 1O, (S)-2-(1,3,4-oxadiazol-2-yl)-7-(4-(2-(((R)-tetrahydrofuran-3-yl)oxy)phenyl)piperidin-1-yl)-5-oxa-2-azaspiro[3.4]octane]
Emax: 89% | EC50: 26 nM

c1ccc(C2CCN([C@@H]3COC4(C3)CN(c3nnco3)C4)CC2)c(OC2COC2)c1 [Example 1P, (S)-2-(1,3,4-oxadiazol-2-yl)-7-(4-(2-(oxetan-3-yloxy)phenyl)piperidin-1-yl)-5-oxa-2-azaspiro[3.4]octane]
Emax: 94% | EC50: 28 nM

COc1ccccc1C1CCN([C@@H]2COC3(C2)CN(c2nnco2)C3)CC1 [Example 1Q, (S)-7-(4-(2-methoxyphenyl)piperidin-1-yl)-2-(1,3,4-oxadiazol-2-yl)-5-oxa-2-azaspiro[3.4]octane]
Emax: 79% | EC50: 52 nM

Fc1cc(O[C@@H]2CCOC2)c(C2CCN([C@@H]3COC4(C3)CN(c3nnco3)C4)CC2)cc1F [Example 1R, (S)-7-(4-(4,5-difluoro-2-(((R)-tetrahydrofuran-3-yl)oxy)phenyl)piperidin-1-yl)-2-(1,3,4-oxadiazol-2-yl)-5-oxa-2-azaspiro[3.4]octane]
Emax: 77% | EC50: 41 nM

COc1cc(F)ccc1C1CCN([C@@H]2COC3(C2)CN(c2nnco2)C3)CC1 [Example 1S, (S)-7-(4-(4-fluoro-2-methoxyphenyl)piperidin-1-yl)-2-(1,3,4-oxadiazol-2-yl)-5-oxa-2-azaspiro[3.4]octane]
Emax: 68% | EC50: 79 nM

CC(C)(O)CCOc1cc(F)ccc1C1CCN([C@@H]2COC3(C2)CN(c2nnco2)C3)CC1 [Example 1T, (S)-4-(2-(1-(2-(1,3,4-oxadiazol-2-yl)-5-oxa-2-azaspiro[3.4]octan-7-yl)piperidin-4-yl)-5-fluorophenoxy)-2-methylbutan-2-ol]
Emax: 45% | EC50: 157 nM

CC(C)(O)COc1ccc(F)cc1C1CCN([C@@H]2COC3(C2)CN(c2nnco2)C3)CC1 [Example 1U, (S)-1-(2-(1-(2-(1,3,4-oxadiazol-2-yl)-5-oxa-2-azaspiro[3.4]octan-7-yl)piperidin-4-yl)-4-fluorophenoxy)-2-methylpropan-2-ol]
Emax: 73% | EC50: 90 nM

COc1ccc(F)cc1C1CCN([C@@H]2COC3(C2)CN(c2nnco2)C3)CC1 [Example 1V, (S)-7-(4-(5-fluoro-2-methoxyphenyl)piperidin-1-yl)-2-(1,3,4-oxadiazol-2-yl)-5-oxa-2-azaspiro[3.4]octane]
Emax: 83% | EC50: 35 nM

c1ccc(C2CCN([C@@H]3COC4(C3)CN(c3nnco3)C4)CC2)c(-c2cncnc2)c1 [Example 1W, (S)-2-(1,3,4-oxadiazol-2-yl)-7-(4-(2-(pyrimidin-5-yl)phenyl)piperidin-1-yl)-5-oxa-2-azaspiro[3.4]octane]
Emax: 89% | EC50: 12 nM

c1ccc(C2CCN([C@@H]3COC4(C3)CN(c3nnco3)C4)CC2)c(-c2ncco2)c1 [Example 1X, (S)-2-(1,3,4-oxadiazol-2-yl)-7-(4-(2-(oxazol-2-yl)phenyl)piperidin-1-yl)-5-oxa-2-azaspiro[3.4]octane]
Emax: 84% | EC50: 112 nM

Cc1nnc(-c2ccccc2C2CCN([C@@H]3COC4(C3)CN(c3nnco3)C4)CC2)o1 [Example 1Y, (S)-7-(4-(2-(5-methyl-1,3,4-oxadiazol-2-yl)phenyl)piperidin-1-yl)-2-(1,3,4-oxadiazol-2-yl)-5-oxa-2-azaspiro[3.4]octane]
Emax: 86% | EC50: 112 nM

Fc1ccc(OCC2COC2)c(C2CCN([C@@H]3COC4(C3)CN(c3nncs3)C4)CC2)c1 [Example 2A, (S)-7-(4-(5-fluoro-2-(oxetan-3-ylmethoxy)phenyl)piperidin-1-yl)-2-(1,3,4-thiadiazol-2-yl)-5-oxa-2-azaspiro[3.4]octane]
Emax: 79% | EC50: 24 nM

CC1(COc2ccc(F)cc2C2CCN([C@@H]3COC4(C3)CN(c3nncs3)C4)CC2)COC1 [Example 2B, (S)-7-(4-(5-fluoro-2-((3-methyloxetan-3-yl)methoxy)phenyl)piperidin-1-yl)-2-(1,3,4-thiadiazol-2-yl)-5-oxa-2-azaspiro[3.4]octane]
Emax: 71% | EC50: 25 nM

Cc1nnc(COc2ccc(F)cc2C2CCN([C@@H]3COC4(C3)CN(c3nnco3)C4)CC2)s1 [Example 2E, (S)-7-(4-(5-fluoro-2-((5-methyl-1,3,4-thiadiazol-2-yl)methoxy)phenyl)piperidin-1-yl)-2-(1,3,4-oxadiazol-2-yl)-5-oxa-2-azaspiro[3.4]octane]
Emax: 85% | EC50: 1 nM

Cc1nnc(COc2ccc(F)cc2C2CCN([C@@H]3COC4(C3)CN(c3nnco3)C4)CC2)o1 [Example 2F, (S)-7-(4-(5-fluoro-2-((5-methyl-1,3,4-oxadiazol-2-yl)methoxy)phenyl)piperidin-1-yl)-2-(1,3,4-oxadiazol-2-yl)-5-oxa-2-azaspiro[3.4]octane]
Emax: 90% | EC50: 1 nM

Cc1cc(COc2ccc(F)cc2C2CCN([C@@H]3COC4(C3)CN(c3nnco3)C4)CC2)on1 [Example 2G, (S)-7-(4-(5-fluoro-2-((3-methylisoxazol-5-yl)methoxy)phenyl)piperidin-1-yl)-2-(1,3,4-oxadiazol-2-yl)-5-oxa-2-azaspiro[3.4]octane]
Emax: 86% | EC50: 3 nM

Fc1ccc(OCC2COC2)c(C2CCN([C@@H]3COC4(C3)CN(c3nnco3)C4)CC2)c1 [Example 2H, (S)-7-(4-(5-fluoro-2-(oxetan-3-ylmethoxy)phenyl)piperidin-1-yl)-2-(1,3,4-oxadiazol-2-yl)-5-oxa-2-azaspiro[3.4]octane]
Emax: 88% | EC50: 6 nM

Fc1ccc(OCc2ncccn2)c(C2CCN([C@@H]3COC4(C3)CN(c3nnco3)C4)CC2)c1 [Example 2I, (S)-7-(4-(5-fluoro-2-(pyrimidin-2-ylmethoxy)phenyl)piperidin-1-yl)-2-(1,3,4-oxadiazol-2-yl)-5-oxa-2-azaspiro[3.4]octane]
Emax: 77% | EC50: 12 nM

Fc1ccc(OCC2(F)COC2)c(C2CCN([C@@H]3COC4(C3)CN(c3nnco3)C4)CC2)c1 [Example 2J, (S)-7-(4-(5-fluoro-2-((3-fluorooxetan-3-yl)methoxy)phenyl)piperidin-1-yl)-2-(1,3,4-oxadiazol-2-yl)-5-oxa-2-azaspiro[3.4]octane]
Emax: 90% | EC50: 12 nM

CC1(COc2ccc(F)cc2C2CCN([C@@H]3COC4(C3)CN(c3nnco3)C4)CC2)COC1 [Example 2K, (S)-7-(4-(5-fluoro-2-((3-methyloxetan-3-yl)methoxy)phenyl)piperidin-1-yl)-2-(1,3,4-oxadiazol-2-yl)-5-oxa-2-azaspiro[3.4]octane]
Emax: 82% | EC50: 18 nM
